Test results reported in PMC6327263, “Evaluation of Novel 3-Hydroxyflavone Analogues as HDAC Inhibitors against Colorectal Cancer” (Advances in Pharmacological Sciences, 2018).

Assays:
[1] = target: T1, recombinant human HDAC8 enzyme (Homo sapiens, UniProt Q9BY41); test: HDAC8 enzyme inhibition assay; assay type: biochemical; details: mean ± SEM of three experiments
T1 construct: purchased Enzo Life Science, NY, USA BML-AK518
T1 sequence (Q9BY41 1-377): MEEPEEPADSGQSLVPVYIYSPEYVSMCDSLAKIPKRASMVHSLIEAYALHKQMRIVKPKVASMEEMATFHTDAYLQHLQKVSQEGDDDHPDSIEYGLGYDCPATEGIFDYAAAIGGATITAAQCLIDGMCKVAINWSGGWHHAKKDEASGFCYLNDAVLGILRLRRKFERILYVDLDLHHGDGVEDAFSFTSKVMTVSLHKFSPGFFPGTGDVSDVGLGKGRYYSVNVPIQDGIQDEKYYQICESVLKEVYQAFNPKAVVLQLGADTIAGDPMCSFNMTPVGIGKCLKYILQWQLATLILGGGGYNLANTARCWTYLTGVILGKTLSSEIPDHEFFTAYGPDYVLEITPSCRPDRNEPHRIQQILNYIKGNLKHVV
Experimental: The enzymatic reaction was conducted as per Enzo Life Science, NY, USA (BML-AK518) kit protocol. In brief, 10 µl of different concentration of test compounds were added to a 40 µl reaction mixture containing the HDAC assay buffer, HDAC8 substrate, and recombinant human HDAC8 enzyme. The reactions were incubated for 20 min at 30°C. Then, 50 µl of the HDAC developer was added in each well, and the plate was incubated at room temperature for an additional 45 min. Fluorescence intensity was measured at an excitation of 360 nm and an emission of 460 nm using a fluorescence microplate reader (FLx800, BioTek Instruments Inc., Winooski, VT, USA).

HCT116 cells = test: MTT cytotoxicity assay, HCT116; assay type: cell-based, human; details: for cytotoxicity in HCT116 relative to inhibitory concentration in normal (Vero) cell line: HCT116 vs Vero; for IC50: Homo sapiens, HCT-116, 48 h, mean ± SEM of three experiments
Experimental: (§1) Human colorectal carcinoma cell line (HCT116) and African green monkey kidney epithelial cells (VERO) were obtained from National Centre for Cell Science, Pune, MH, India. For their maintenance, the cells were grown in Dulbecco's Modified Eagle's Medium (DMEM) which was supplemented with 10% fetal bovine serum (FBS) and 1 × penicillin/streptomycin at 37°C in CO2 incubator (NU-5501E/G, NuAire Inc., Plymouth, MN, USA) in a humidified atmosphere of 5% CO2 and 95% air.
(§2) Cytotoxicity for the synthesized analogues was determined using MTT assay. In brief, HCT116 and VERO cells were harvested from the tissue culture flask and seeded in sterile 96 well plates at a density of 5000 cells per well. After overnight adherence, different concentrations of test compounds were added and incubated for 48 h. Next, 50 µl of the MTT reagent (HiMedia Laboratories, Mumbai, India) (2 mg/ml in the sterile phosphate buffer saline (PBS)) was added into each well and incubated for 3 h. The formazan crystals formed were solubilized using 100% dimethyl sulfoxide (DMSO), and the optical density was measured at 540 nm using the microplate reader (ELx800, BioTek Instruments Inc., Winooski, VT, USA).

[2] = system: caspase 3/7 in HCT116 cells; test: Caspase 3/7 activation assay; assay type: cell-based, human; details: SAHA 5 µM, quercetin 100 µM, QMJ-2 100 µM, QMJ-5 50 µM; for percentage of apoptotic cells (Apoptotic/Dead, caspase 3/7): normal control 24.60%; for percentage of live cells (caspase 3/7): normal control 69.40%
Experimental: The downstream signaling pathway of apoptosis was determined using the caspase 3/7 activation assay. In brief, as per the caspase 3/7 activation kit protocol (#MCH100108), 1 × 10^6 cells were seeded in the cell culture dish and after overnight adherence, were incubated with the test compounds. The cells were detached by trypsinization, centrifuged, and washed with PBS. Cell suspension (50 µl) was mixed with the caspase 3/7 antibody reagent (5 µl) and incubated at 37°C temperature for 30 min. 7-AAD (7-amino-actinomycin D) working solution (150 µl) was added, and stained cells were then analyzed in Muse Cell Analyzer (#0500-3115 Merck Millipore).

VERO cells = test: MTT cytotoxicity assay, Vero; assay type: cell-based, African green monkey; details: Chlorocebus sabaeus, 48 h, mean ± SEM of three experiments
Experimental: as §1, §2

IC50 [1] [µM] | Compound | cytotoxicity in HCT116 relative to inhibitory concentration in normal (Vero) cell line (HCT116 cells) | IC50 (HCT116 cells) [µM] | percentage of apoptotic cells (Apoptotic/Dead, caspase 3/7) [2] [%] | percentage of live cells (caspase 3/7) [2] [%] | IC50 (VERO cells) [µM]
24 ± 2.8 | Cc1ccc(-c2oc3cc(C)ccc3c(=O)c2O)cc1 [QMJ-5, 3-Hydroxy-7-methyl-2-(4-methylphenyl)-4H-1-benzopyran-4-one] | two-fold lower concentration | 27.4 ± 1.8 | 83.55 | 8.05 | 55.6 ± 3.8
36 ± 4.17 | Cc1ccc(-c2oc3ccccc3c(=O)c2O)cc1 [QMJ-2, 3-Hydroxy-2-(4-methylphenyl)-4H-1-benzopyran-4-one] | two-fold lower concentration | 68 ± 2.3 | 55.70 | 37.40 | 140 ± 6.8

Compound | IC50 [1] [µM] | cytotoxicity in HCT116 relative to inhibitory concentration in normal (Vero) cell line (HCT116 cells) | IC50 (HCT116 cells) [µM] | percentage of apoptotic cells (Apoptotic/Dead, caspase 3/7) [2] [%] | percentage of live cells (caspase 3/7) [2] [%] | IC50 (VERO cells) [µM]
O=c1c(O)c(-c2ccc(O)c(O)c2)oc2cc(O)cc(O)c12 [Quercetin, quercetin, reference compound] | 15.4 ± 1.53 | – | 108 ± 1.2 | 59.65 | – | 202 ± 7.5
